# Measurements from patent US20260285816A1, “Piperazinyl-Modified Quinazolinyl-Aryl Urea Derivative, And Preparation Method And Use Thereof” (Guangxi Normal University, priority 2025, published 2026).
# Where two headings read alike, the source gives them in different places.
# Columns and labels:
# Type in all cases: cell-based, human
# [1] = system: 143B cells; assay: CCK-8 anti-proliferative assay, 143B; details: Homo sapiens, 143B; Table 14; comparative compounds; co-incubated 48 h; read-out: Anti-proliferative activity (IC50 ± standard deviation) 143B
# Excerpt: (§1) The obtained quinazolinyl-aryl urea derivatives were screened for compounds with optimal activity using the following method. All cell lines employed in this experiment were of human origin, including: bladder cancer cells: J82, UM-UC-3, T24, 5637, pancreatic cancer cells: BxPC-3, PANC-1, osteosarcoma cells: 143B, MG-63, cervical cancer cells: HeLa, breast cancer cells: MCF-7, NSCLC cells: A549, hepatoblastoma cells: Hep G2, and ovarian cancer cells: SK-OV-3, as well as normal cell lines: immortalized ureteral epithelial cells (SV-HUC-1), embryonic lung fibroblasts (WI-38).
# (§2) Experimental Procedure for Anti-Proliferative Activity Evaluation: The CCK-8 assay was employed. Cells in logarithmic growth phase were harvested, adjusted to appropriate density, and uniformly seeded into 96-well plates using a multichannel pipette (180 μL cell suspension containing complete medium per well, 5,000 cells/well). Blank control wells (containing basal medium, CCK-8 solution, and DMSO only) were set. Cells were incubated at 37° C. under 5% CO2. After 70% confluency was reached, test compounds (target compounds/positive controls) were added at final concentrations of 1, 2, 4, 6, 8, 12, 16, 24, and 30 μM (3 repeated wells per concentration). Compounds were pre-dissolved in DMSO, sterilized, and diluted with medium before adding 20 μL/well. After co-incubation for designated durations, 10 μL CCK-8 solution was added per well followed by 1-4 h incubation (different cells have different incubation times). The reaction was terminated, and OD (optical density) values at 450 nm were measured using a microplate reader. Inhibition rates were calculated as: (ODcontrol−ODtreatment)/ODcontrol×100%. Median inhibitory concentrations (IC50 values) were derived using Origin v8.0 software.
# [2] = system: BxPC-3 cells; assay: CCK-8 anti-proliferative assay, BxPC-3; details: Homo sapiens, BXPC-3; Table 15; comparative compounds; co-incubated 48 h; read-out: Anti-proliferative activity (IC50 ± standard deviation) BxPC-3
# Excerpt: as §1, §2
# [3] = system: MG-63 cells; assay: CCK-8 anti-proliferative assay, MG-63; details: Homo sapiens, MG-63; Table 14; comparative compounds; co-incubated 48 h; read-out: Anti-proliferative activity (IC50 ± standard deviation) MG-63
# Excerpt: as §1, §2
# [4] = system: PANC-1 cells; assay: CCK-8 anti-proliferative assay, PANC-1; details: Homo sapiens, PANC-1; Table 15; comparative compounds; co-incubated 48 h; read-out: Anti-proliferative activity (IC50 ± standard deviation) PANC-1
# Excerpt: as §1, §2
# [5] = system: UM-UC-3 cells; assay: CCK-8 anti-proliferative assay, UM-UC-3; details: Homo sapiens, UMUC3; Table 14; comparative compounds; co-incubated 48 h; read-out: Anti-proliferative activity (IC50 ± standard deviation) UM-UC-3
# Procedure: (§3) The obtained quinazolinyl-aryl urea derivatives were screened for compounds with optimal activity using the following method.
# as §2, with “The reaction was terminated, and OD (optical density) values at 450 nm were measured using a microplate reader.” left out
# [6] = system: SK-OV-3 cells; assay: CCK-8 anti-proliferative assay, SK-OV-3; details: co-incubated 48 h, read-out: Anti-proliferative activity (IC50 ± standard deviation) SK-OV-3
# Procedure: as §3
# as §2, with “The reaction was terminated, and OD (optical density) values at 450 nm were measured using a microplate reader.” left out
# [7] = system: immortalized ureteral epithelial cells (SV-HUC-1); assay: CCK-8 anti-proliferative assay, normal cells SV-HUC-1; details: read-out: Anti-proliferative activity (IC50 ± standard deviation) SV-HUC-1
# Procedure: as §3
# as §2, with “The reaction was terminated, and OD (optical density) values at 450 nm were measured using a microplate reader.” left out
# [8] = Homo sapiens, SK-OV-3, Table 15, comparative compounds
IC50 [2] [µM],IC50 [4] [µM],"IC50 [6, 8] [µM]",SMILES,IC50 [1] [µM],IC50 [3] [µM],IC50 [5] [µM],"IC50 ([7]; Homo sapiens, SV-HUC1, 48 h) [µM]","IC50 ([7]; Table 9, normal cells, co-incubated 48 h) [µM]",IC50 ([6]; Table 9) [µM]
18.6 ± 1.66,> 30,28.4 ± 1.46,"COc1cc2ncnc(NCc3cccc(NC(=O)Nc4ccccc4)c3)c2cc1OC [Compound I-1, reference compound]",18.3 ± 1.74,27.1 ± 1.45,> 30,–,–,–
9.85 ± 0.76,11.7 ± 0.82,11.2 ± 0.92,"COc1cc2ncnc(NCc3cccc(NC(=O)Nc4ccccc4Cl)c3)c2cc1OC [Compound I-10, reference compound]",7.74 ± 0.39,11.1 ± 0.54,8.77 ± 0.41,–,–,–
–,–,–,"CNC(=O)c1cc(Oc2ccc(NC(=O)Nc3ccc(Cl)c(C(F)(F)F)c3)c(F)c2)ccn1 [Reg, regorafenib, reference compound]",–,–,–,11.4 ± 0.69,–,–
9.92 ± 0.41,14.8 ± 1.24,8.4 ± 0.53,"CCc1cccc(CC)c1NC(=O)Nc1cccc(CNc2ncnc3ccccc23)c1 [Compound II-5, reference compound]",7.26 ± 0.35,10.5 ± 0.82,8.72 ± 0.36,–,–,–
27.6 ± 1.91,> 30,> 30,"O=C(Nc1ccccc1)Nc1cccc(CNc2ncnc3ccccc23)c1 [Compound II-1, reference compound]",> 30,> 30,> 30,–,–,–
8.62 ± 0.86,10.7 ± 0.95,10 ± 0.53,"COc1cc2ncnc(NCc3cccc(NC(=O)Nc4ccc(F)cc4)c3)c2cc1OC [Compound I-9, reference compound]",6.11 ± 0.42,14.8 ± 1.22,9.56 ± 0.72,–,–,–
14.2 ± 0.82,20.7 ± 0.96,9.27 ± 0.55,"O=C(Nc1cccc(CNc2ncnc3ccccc23)c1)Nc1ccc(Cl)cc1Cl [Compound II-17, reference compound]",10.3 ± 0.67,8.54 ± 0.59,7.69 ± 0.56,–,–,–
7.78 ± 0.69,17.6 ± 1.48,9.17 ± 0.58,"COc1cc2ncnc(NCc3cccc(NC(=O)Nc4ccc(C)cc4C)c3)c2cc1OC [Compound I-3, reference compound]",5.94 ± 0.33,12.1 ± 0.76,9.02 ± 0.74,–,–,–
10.3 ± 0.59,24.4 ± 1.69,10.1 ± 0.69,"COc1cc2ncnc(NCc3cccc(NC(=O)Nc4ccc(C)cc4)c3)c2cc1OC [Compound I-2, reference compound]",6.34 ± 0.56,11.2 ± 0.67,11.2 ± 0.85,–,–,–
14.3 ± 0.86,> 30,14.7 ± 0.98,"Cc1ccc(NC(=O)Nc2cccc(CNc3ncnc4ccccc34)c2)cc1 [Compound II-3, reference compound]",11.3 ± 0.88,17.8 ± 0.95,17.8 ± 0.57,–,–,–
15.5 ± 1.71,> 30,19.5 ± 1.37,"Cc1cccc(NC(=O)Nc2cccc(CNc3ncnc4ccccc34)c2)c1 [Compound II-2, reference compound]",13.2 ± 0.86,19.3 ± 1.76,22.8 ± 1.38,–,–,–
6.54 ± 0.61,12.5 ± 0.97,7.76 ± 0.38,"CCc1ccccc1NC(=O)Nc1cccc(CNc2ncnc3cc(OC)c(OC)cc23)c1 [Compound I-5, reference compound]",6.47 ± 0.28,13.4 ± 0.95,10.5 ± 0.71,–,–,–
12.3 ± 0.56,> 30,19.7 ± 0.73,"COc1cc2ncnc(NCc3cccc(NC(=O)NCc4ccccc4)c3)c2cc1OC [Compound I-14, reference compound]",> 30,> 30,> 30,–,–,–
8.43 ± 0.39,26.2 ± 2.26,15 ± 1.74,"O=C(Nc1ccc(C(F)(F)F)cc1)Nc1cccc(CNc2ncnc3ccccc23)c1 [Compound II-13, reference compound]",7.56 ± 0.27,20.8 ± 0.95,9.63 ± 0.52,–,–,–
23.6 ± 1.47,26.5 ± 2.36,9.12 ± 0.44,"COc1ccccc1NC(=O)Nc1cccc(CNc2ncnc3cc(OC)c(OC)cc23)c1 [Compound I-6, reference compound]",19.3 ± 1.67,25.4 ± 1.74,20.6 ± 2.37,–,–,–
22.8 ± 1.71,> 30,13.7 ± 0.85,"COc1ccc(NC(=O)Nc2cccc(CNc3ncnc4cc(OC)c(OC)cc34)c2)cc1 [Compound I-7, reference compound]",21.3 ± 1.59,> 30,18.6 ± 1.35,–,–,–
–,–,–,"[NH2][Pt]([NH2])([Cl])[Cl] [CDDP, cisplatin, reference compound]",–,–,–,–,10.3 ± 0.68,9.89 ± 0.97
13.3 ± 0.87,15.7 ± 1.52,7.78 ± 0.69,"CC(C)(C)c1ccc(NC(=O)Nc2cccc(CNc3ncnc4ccccc34)c2)cc1 [Compound II-9, reference compound]",10.5 ± 0.43,9.24 ± 0.71,9.77 ± 0.52,–,–,–
